pIC50: −log10 of the molar value. Activity calls are given as the source filed them. The rule behind the calls is not given here.
Key:
[1] = test system: Caco-2; assay: Anticancer activity against human Caco-2 cells assessed as losing contact with neighbouring cells incubated at 0.11 uM for 72 hrs by phase contrast inverted microscopic analysis; assay type: functional, cell-based
[2] = test system: HepG2; assay: Anticancer activity against human HepG2 cells assessed as cell shrinkage incubated at 0.11 uM for 72 hrs by phase contrast inverted microscopic analysis; assay type: functional, cell-based
[3] = test system: HepG2; assay: Anticancer activity against human HepG2 cells assessed as absence of normal spindle shape incubated at 0.11 uM for 72 hrs by phase contrast inverted microscopic analysis; assay type: functional, cell-based
[4] = test system: HeLa; assay: Induction of apoptosis in human HeLa cells assessed as necrotic cells incubated at 0.11 uM for 72 hrs by annexin V-FITC based propidium iodide dual staining assay (reference value: 0%); assay type: functional
[5] = test system: HepG2; assay: Induction of apoptosis in human HepG2 cells assessed as viable cells incubated at 0.11 uM for 72 hrs by annexin V-FITC based propidium iodide dual staining assay (reference value: 97.27%); assay type: functional; settings: read-out: Activity
[6] = test system: HepG2; assay: Induction of apoptosis in human HepG2 cells assessed as late apoptotic cells incubated at 0.11 uM for 72 hrs by annexin V-FITC based propidium iodide dual staining assay (reference value: 0.66%); assay type: functional
[7] = test system: HeLa; assay: Induction of apoptosis in human HeLa cells assessed as late apoptotic cells by measuring orange to red patch incubated at 0.11 uM for 72 hrs by acridine orange-ethidium bromide dual staining based fluorescence microscopic analysis; assay type: functional, cell-based
[8] = test system: dsDNA; assay: Induction of damage in dsDNA (unknown origin) assessed as DNA disruption by measuring fluorescence intensity at 100 uM incubated for 2.5 hrs by EvaGreen based fluorescence plate reader analysis; assay type: nucleic-acid assay
[9] = test system: HepG2; assay: Anticancer activity against human HepG2 cells incubated for 24 hrs by MTT assay; assay type: functional, cell-based; settings: HepG2, 24 h
[10] = test system: HeLa; assay: Induction of apoptosis in human HeLa cells assessed as early apoptotic cells incubated at 0.017 uM for 72 hrs by annexin V-FITC based propidium iodide dual staining assay (reference value: 2.77%); assay type: functional
[11] = test system: HepG2; assay: Induction of apoptosis in human HepG2 cells assessed as viable cells incubated at 0.017 uM for 72 hrs by annexin V-FITC based propidium iodide dual staining assay (reference value: 97.27%); assay type: functional; settings: read-out: Activity
[12] = test system: HeLa; assay: Induction of apoptosis in human HeLa cells assessed as total apoptotic cells incubated at 0.017 uM for 72 hrs by annexin V-FITC based propidium iodide dual staining assay (reference value: 0 +/- 0.035%); assay type: functional
[13] = test system: Caco-2; assay: Induction of oxidative stress in human Caco-2 cells assessed as cell death by measuring redox alteration fluorescence incubated at 0.097 uM for 72 hrs in presence of dihydro dichlorofluorescein diacetate by DCFH-DA based flow cytometric analysis relative to control; assay type: functional
[14] = test system: Caco-2; assay: Anticancer activity against human Caco-2 cells assessed as round cells incubated at 0.097uM for 72 hrs by phase contrast inverted microscopic analysis; assay type: functional, cell-based
[15] = test system: MCF7; assay: Anticancer activity against human MCF7 cells assessed as cell shrinkage incubated at 0.097uM for 72 hrs by phase contrast inverted microscopic analysis; assay type: functional, cell-based
[16] = test system: HeLa; assay: Anticancer activity against human HeLa cells assessed as smaller cells incubated at 0.097uM for 72 hrs by phase contrast inverted microscopic analysis; assay type: functional, cell-based
[17] = test system: HeLa; assay: Anticancer activity against human HeLa cells assessed as round cells incubated at 0.097uM for 72 hrs by phase contrast inverted microscopic analysis; assay type: functional, cell-based
[18] = test system: HeLa; assay: Anticancer activity against human HeLa cells assessed as cell shrinkage incubated at 0.097uM for 72 hrs by phase contrast inverted microscopic analysis; assay type: functional, cell-based
[19] = test system: Caco-2; assay: Induction of apoptosis in human Caco-2 cells assessed as early apoptotic cells incubated at 0.097 uM for 72 hrs by annexin V-FITC based propidium iodide dual staining assay (reference value: 0.07%); assay type: functional
[20] = test system: Caco-2; assay: Induction of apoptosis in human Caco-2 cells assessed as late apoptotic cells incubated at 0.097 uM for 72 hrs by annexin V-FITC based propidium iodide dual staining assay (reference value: 0.02%); assay type: functional
[21] = test system: MCF7; assay: Induction of apoptosis in human MCF7 cells assessed as early apoptotic cells incubated at 0.097 uM for 72 hrs by annexin V-FITC based propidium iodide dual staining assay (reference value: 0.06%); assay type: functional
[22] = test system: HeLa; assay: Induction of apoptosis in human HeLa cells assessed as early apoptotic cells incubated at 0.097 uM for 72 hrs by annexin V-FITC based propidium iodide dual staining assay (reference value: 2.77%); assay type: functional
[23] = test system: HeLa; assay: Induction of apoptosis in human HeLa cells assessed as total apoptotic cells incubated at 0.097 uM for 72 hrs by annexin V-FITC based propidium iodide dual staining assay (reference value: 0 +/- 0.035%); assay type: functional
[24] = test system: HeLa; assay: Induction of apoptosis in human HeLa cells assessed as late apoptotic cells by measuring orange to red patch incubated at 0.097 uM for 72 hrs by acridine orange-ethidium bromide dual staining based fluorescence microscopic analysis; assay type: functional, cell-based
[25] = test system: HeLa; assay: Induction of apoptosis in human HeLa cells assessed as caspase3/7 activation at 0.097 uM using caspase-glo 3/7 as substrate relative to control; assay type: functional
[26] = test system: MCF7; assay: Anticancer activity against human MCF7 cells assessed as losing contact with neighbouring cells incubated at 0.098uM for 72 hrs by phase contrast inverted microscopic analysis; assay type: functional, cell-based
[27] = test system: MCF7; assay: Anticancer activity against human MCF7 cells assessed as absence of normal spindle shape incubated at 0.098uM for 72 hrs by phase contrast inverted microscopic analysis; assay type: functional, cell-based
[28] = test system: HeLa; assay: Anticancer activity against human HeLa cells assessed as losing contact with neighbouring cells incubated at 0.098uM for 72 hrs by phase contrast inverted microscopic analysis; assay type: functional, cell-based
[29] = test system: HeLa; assay: Anticancer activity against human HeLa cells assessed as cell shrinkage incubated at 0.098uM for 72 hrs by phase contrast inverted microscopic analysis; assay type: functional, cell-based
[30] = test system: HepG2; assay: Anticancer activity against human HepG2 cells assessed as losing contact with neighbouring cells incubated at 0.098uM for 72 hrs by phase contrast inverted microscopic analysis; assay type: functional, cell-based
[31] = test system: Caco-2; assay: Induction of apoptosis in human Caco-2 cells assessed as necrotic cells incubated at 0.098 uM for 72 hrs by annexin V-FITC based propidium iodide dual staining assay (reference value: 0.02 %); assay type: functional
[32] = test system: HepG2; assay: Induction of apoptosis in human HepG2 cells assessed as early apoptotic cells incubated at 0.098 uM for 72 hrs by annexin V-FITC based propidium iodide dual staining assay (reference value: 1.74%); assay type: functional
[33] = test system: HepG2; assay: Induction of apoptosis in human HepG2 cells assessed as late apoptotic cells incubated at 0.098 uM for 72 hrs by annexin V-FITC based propidium iodide dual staining assay (reference value: 0.66%); assay type: functional
[34] = test system: Caco-2; assay: Induction of apoptosis in human Caco-2 cells assessed as total apoptotic cells incubated at 0.098 uM for 72 hrs by annexin V-FITC based propidium iodide dual staining assay (reference value: 0.04 +/- 0.005%); assay type: functional
[35] = test system: HeLa; assay: Induction of apoptosis in human HeLa cells assessed as total apoptotic cells incubated at 0.098 uM for 72 hrs by annexin V-FITC based propidium iodide dual staining assay (reference value: 0 +/- 0.035%); assay type: functional
[36] = test system: HeLa; assay: Induction of apoptosis in human HeLa cells assessed as late apoptotic cells by measuring orange to red patch incubated at 0.098 uM for 72 hrs by acridine orange-ethidium bromide dual staining based fluorescence microscopic analysis; assay type: functional, cell-based

C#CCN1C(=O)CN(/N=C/c2ccc([N+](=O)[O-])o2)C1=O
Activity [1]: Active
Activity [2]: Active
Activity [3]: Active
Activity [4]: 2.48%
viability at 0.11 µM [5]: 32.1%
Activity [6]: 59.49%
Activity [7]: Active
Activity [8]: 27.2
pIC50 [9]: 3.93

O=c1[nH]cc(F)c(=O)[nH]1 [FLUOROURACIL]
Activity [10]: 7.6%
viability at 0.017 µM [11]: 88.4%
Activity [12]: 4.29%
Activity [13]: 4.78%

NS(=O)(=O)c1ccc(-n2cc(CN3C(=O)CN(/N=C/c4ccc([N+](=O)[O-])o4)C3=O)nn2)cc1
Activity [14]: Active
Activity [15]: Active
Activity [16]: Active
Activity [17]: Active
Activity [18]: Active
Activity [19]: 30.95%
Activity [20]: 22.46%
Activity [21]: 4.85%
Activity [22]: 17.31%
Activity [23]: 39.42%
Activity [24]: Active
Activity [25]: 58%

O=C(CN1C(=O)CN(/N=C/c2ccc([N+](=O)[O-])o2)C1=O)c1ccc(Cl)cc1
Activity [26]: Active
Activity [27]: Active
Activity [28]: Active
Activity [29]: Active
Activity [30]: Active
Activity [31]: 3.37%
Activity [32]: 6.31%
Activity [33]: 34.89%
Activity [34]: 30.95%
Activity [35]: 64.08%
Activity [36]: Active

— ChEMBL document CHEMBL5380816, “Inclusion of Nitrofurantoin into the Realm of Cancer Chemotherapy via Biology-Oriented Synthesis and Drug Repurposing” (J Med Chem, 2023)
